Data set [1] relates to Staphylococcus aureus Smith strain. Nature of the data set: Infection treating test (CD50). The format is in vivo. As to conditions: in Mus musculus, sc, 2 h, mice infected intraperitoneally with 5 x 10^5 cells per mouse, subcutaneous injection two hours after the infection. The protocol: The in vivo activities of the compounds of formula (VI-b) were determined by using mice (five per group, male DDY mice, Shizuoka) which had been intraperitoneally infected with Staphylococcus aureus Smith strain in an amount of 5 x 10^5 cells per mouse. Two hours after the infection, an injection containing a sodium salt of each of the compounds of formula (VI-b) was subcutaneously administered to the mice.

Data set [2] is described as follows: Test for concentration in blood (plasma of mouse, bioassay). The format is in vivo. As to conditions: sc, subcutaneous, 2 mg/mouse, average on five mice; for Cmax: bioassay with Comamonas terrigena B-996, read-out: Maximum concentration; for half-life: read-out: Half period (period that elapsed until the concentration was reduced to half). Here is the method:
Typical species of the compounds of formula (VI-b) were each administered subcutaneously to five mice in a dose of 2 mg. After 5 minutes from the administration, a small amount of blood was periodically drawn from the eyes of the mice into a heparinized capillary tube, and centrifuged. The concentration of the compound in the supernatant liquid (plasma) was determined by a bioassay method using Comamonas terri^gena B-996.

Another data set has as its system S. aureus. Nature of the data set: Disc diffusion assay in nutrient broth containing 10% horse serum. The class given is cell-based. The text has this:
The compounds of formula (I) provided by this invention show excellent antimicrobial activities in in vitro tests in horse serum as shown in Table IV below.
For orientation: In agar diffusion tests the substance spreads into inoculated agar from a disc or well.

By ED50 is commonly meant the dose that gives a 50% effect, or the effect in half of the subjects. The low end stands for greater potency, the high end for weaker potency. `CC(O)[C@H]1C(=O)N2C(C(=O)O)=C(Sc3ccncc3)C[C@H]12` (relative stereo) [Table II r7 R1=-OH R2=[drawing] M=H*] came in with a median effective dose (ED50) in data set [1] of 0.125 mg/kg. Also, in data set [2], the Cmax came to 103000 ng/mL and the half-life was found to be 18 min.

`CC(O)[C@@H]1C(=O)N2C(C(=O)O)=C(Sc3ccncc3)C[C@H]12` (relative stereo) [Table II r8 R1=-OH R2=[drawing] M=H**] had a median effective dose (ED50) in data set [1] of 0.125 mg/kg. In addition, in data set [2], the Cmax was determined as 29000 ng/mL and the half-life turned out to be 13.5 min.

In data set [1], `CC(O)[C@H]1C(=O)N2C(C(=O)O)=C(Sc3ncccn3)C[C@H]12` (relative stereo) [Table II r12 R1=-OH R2=[drawing] M=H*] showed a median effective dose (ED50) of 0.25 mg/kg. Moreover, in data set [2], the Cmax was found to be 54000 ng/mL and the half-life came out at 25 min.

`CC(O)[C@@H]1C(=O)N2C(C(=O)O)=C(Sc3ncccn3)C[C@H]12` (relative stereo) [Table II r13 R1=-OH R2=[drawing] M=H**]: in data set [1], the ED50 worked out at 0.25 mg/kg. In addition, in data set [2], the Cmax amounted to 23300 ng/mL and the half-life stood at 19 min.

In data set [1], `CC(=O)NCCSC1=C(C(=O)O)N2C(=O)[C@H](C(C)O)[C@H]2C1` (some centres unmarked) [PS-3A.Na, 3-(2-acetamidoethylthio)-6-(1-hydroxyethyl)-7-oxo-1-azabicyclo[3.2.0]hept-2-ene-2-carboxylic acid, reference compound] showed a median effective dose (ED50) of 4 mg/kg.

Consider `CC(=O)NCCSC1=C(C(=O)O)N2C(=O)C(C(C)O)C2C1` (centres unmarked) [PS-3B.Na, 3-(2-acetamidoethylthio)-6-(1-hydroxyethyl)-7-oxo-1-azabicyclo[3.2.0]hept-2-ene-2-carboxylic acid, reference compound], for which, in data set [2], the Cmax is 26300 ng/mL and the half-life is 5 min.

In data set [1], `CCC1C(=O)N2C(C(=O)O)=C(SCCNC(C)=O)CC12` (centres unmarked) [PS-5.Na, 3-(2-acetamidoethylthio)-6-ethyl-7-oxo-1-azabicyclo[3.2.0]hept-2-ene-2-carboxylic acid, reference compound] gave a 50% effective dose (ED50) of 1 mg/kg. Moreover, in data set [2], the Cmax was found to be 40000 ng/mL and the half-life amounted to 7 min.

Molecule `CC(=O)NCCSC1=C(C(=O)O)N2C(=O)C(C(C)C)C2C1` (centres unmarked) [PS-6.Na, 3-(2-acetamidoethylthio)-6-isopropyl-7-oxo-1-azabicyclo[3.2.0]hept-2-ene-2-carboxylic acid, reference compound] gave a 50% effective dose (ED50) in data set [1] of 8 mg/kg. Moreover, in data set [2], the Cmax came out at 23800 ng/mL and the half-life is 5 min.

`CC(C)C1C(=O)N2C(C(=O)O)=C(SCCN(C)C)CC12` (centres unmarked) [R1=-CH3 R2=-CH2CH2N(CH3)2 M=H] showed an ED50 in data set [1] of 2 mg/kg. For the same molecule, in data set [2], the Cmax was found to be 22000 ng/mL and the half-life amounted to 6.1 min.

The molecule `CCC1C(=O)N2C(C(=O)O)=C(SCCN(C)C)CC12` (centres unmarked) [R1=H R2=-CH2CH2N(CH3)2 M=H] had an ED50 in data set [1] of 0.25 mg/kg. In data set [2], the Cmax was 36200 ng/mL and the half-life worked out at 6 min.

On to `CCC1C(=O)N2C(C(=O)O)=C(SCCNC(=O)Cc3ccccc3)CC12` (centres unmarked) [R1=H R2=-CH2CH2NHCOCH2-[drawing] M=Na], for which, in data set [2], the Cmax came out at 2800 ng/mL and the half-life amounted to 6 min.

In data set [1], `CCC1C(=O)N2C(C(=O)O)=C(SCCO)CC12` (centres unmarked) [R1=H R2=-CH2CH2OH M=Na] showed an ED50 of 1 mg/kg. Besides, in data set [2], the Cmax was 36900 ng/mL and the half-life came to 6 min.

For the molecule `CCC1C(=O)N2C(C(=O)O)=C(Sc3ccncc3)CC12` (centres unmarked) [Table II r5 R1=H R2=[drawing] M=H], the 50% effect level in data set [1] (ED50) was put at a dose of 0.063 mg/kg. In data set [2], the Cmax turned out to be 70700 ng/mL and the half-life came out at 16 min.

For `CC(C)C1C(=O)N2C(C(=O)O)=C(Sc3ccncc3)CC12` (centres unmarked) [Table II r6 R1=-CH3 R2=[drawing] M=H], the 50% effective dose (ED50) in data set [1] worked out at 0.5 mg/kg. Besides, in data set [2], the Cmax amounted to 30700 ng/mL and the half-life turned out to be 15.2 min.

For `CCC1C(=O)N2C(C(=O)O)=C(Sc3ccccn3)CC12` (centres unmarked) [Table II r9 R1=H R2=[drawing] M=H], the 50% effect level in data set [1] (ED50) was put at a dose of 0.125 mg/kg. In data set [2], the Cmax was found to be 48400 ng/mL and the half-life was 29 min.

`CCC1C(=O)N2C(C(=O)O)=C(Sc3ncccn3)CC12` (centres unmarked) [Table II r10 R1=H R2=[drawing] M=H] had a median effective dose (ED50) in data set [1] of 0.25 mg/kg. Further, in data set [2], the Cmax was found to be 23600 ng/mL and the half-life was 22 min.

Regarding `CC(C)C1C(=O)N2C(C(=O)O)=C(Sc3ncccn3)CC12` (centres unmarked) [Table II r11 R1=-CH3 R2=[drawing] M=H], it took a dose of 1 mg/kg to reach the 50% effect level in data set [1] (ED50). Further, in data set [2], the Cmax came to 21200 ng/mL and the half-life stood at 18.2 min.

Regarding `CCC1C(=O)N2C(C(=O)O)=C(SC3CCCCC3)CC12` (centres unmarked) [Table II r14 R1=H R2=[drawing] M=Na], in data set [2], the Cmax was 8240 ng/mL and the half-life turned out to be 7.2 min.

For the molecule `CCC1C(=O)N2C(C(=O)O)=C(Sc3ccccc3)CC12` (centres unmarked) [Table II r15 R1=H R2=[drawing] M=Na], in data set [2], the Cmax was determined as 11300 ng/mL and the half-life was found to be 25.2 min.

In the data set with S. aureus, `CCC1C(=O)N2C(C(=O)OC)=C(Br)CC12` (stereo not drawn) [Table IV r4 R=H X=Br M=CH3, methyl 3-bromo-6-ethyl-7-oxo-l-azabicyclo[3.2.0]hept-2-ene-2-carboxylate] had an Inhibitory zone diameter of 29.7 mm.

The molecule `CCC1C(=O)N2C(C(=O)OCc3ccccc3)=C(Br)CC12` (centres unmarked) [Table IV r5 R=H X=Br M=[drawing]] yielded an Inhibitory zone diameter in the data set on S. aureus of 30.2 mm.

Molecule `CCC1C(=O)N2C(C(=O)OCc3ccc([N+](=O)[O-])cc3)=C(Br)CC12` (centres unmarked) [Table IV r6 R=H X=Br M=[drawing]] gave an Inhibitory zone diameter in the data set with S. aureus of 28.6 mm.

`CC(C)C1C(=O)N2C(C(=O)OCc3ccc([N+](=O)[O-])cc3)=C(Br)CC12` (centres unmarked) [Table IV r7 R=CH3 X=Br M=[drawing]] came in with an Inhibitory zone diameter with S. aureus of 26.8 mm.

For the molecule `CC(O)C1C(=O)N2C(C(=O)OCc3ccc([N+](=O)[O-])cc3)=C(Br)CC12` (centres unmarked) [Table IV r8 R=OH X=Br M=[drawing]], the Inhibitory zone diameter in the data set with S. aureus is reported as 31.2 mm.

In the data set with S. aureus, `CCC1C(=O)N2C(C(=O)OC)=C(I)CC12` (stereo not drawn) [Table IV r9 R=H X=I M=CH3, methyl 3-iodo-6-ethyl-7-oxo-l-azabicyclo[3.2.0]hept-2-ene-2-carboxylate] had an Inhibitory zone diameter of 29.6 mm.

For the molecule `CCC1C(=O)N2C(C(=O)OCc3ccccc3)=C(I)CC12` (centres unmarked) [Table IV r10 R=H X=I M=[drawing]], the Inhibitory zone diameter in the data set with S. aureus was 30.0 mm.

Consider `COC(=O)C1=C(I)CC2C(C(C)O)C(=O)N12` (centres unmarked) [Table IV r11 R=OH X=I M=CH3], for which the Inhibitory zone diameter in the data set with S. aureus is 31.0 mm.

Values taken from EP0017970A1, “Novel beta-lactam derivatives and process for production thereof” (SANRAKU-OCEAN CO., LTD., priority 1979, dated 1980).
